In patent US20190030009A1, “COMPOUNDS AND COMPOSITIONS FOR THE TREATMENT OF CRYPTOSPORIDIOSIS” (Novartis AG, priority 2016, published 2019):

Target: C. parvum PI(4)K (Cryptosporidium parvum, UniProt Q5CVD3)
Assay: CpPI(4)K enzymatic assay (Transcreener ADP2 FP)
Assay type: biochemical
Text: The full-length coding sequence of C. parvum PI(4)K (cgd8_4500, 1114 amino acids) was codon-optimized for baculovirus expression, synthesized and cloned into pFastBac-HTb (Invitrogen 10584-027) in frame with the amino-terminal polyhistidine tag using the BamHI and Hindlll restriction sites. Recombinant pFastBacHTb-CpPI(4)K bacmid clones were generated by site-specific transposition in E. coli DH10Bac (Invitrogen 10361-012). The bacmid sequence was confirmed by direct DNA sequencing to confirm a lack of mutations across the whole gene. The subsequent steps for bacmid isolation, transfection and selection of the recombinant viruses were performed according to the manufacturer's protocol (Bac-to-Bac system #10359, Invitrogen).
SF9 cells, cultured in SF-900 III serum-free medium, were transfected with recombinant baculovirus at 1/200 (v/v) and incubated at 27° C. for 72 h. The pellets were collected after centrifugation and re-suspended in cell lysis buffer (20 mM Tris-HCl, pH 7.5, 300 mM NaCl, 1 mM DTT, 20 mM imidazole, 0.01% Triton X-100 and 1× complete protease inhibitor cocktail without EDTA (Roche Diagnostics 04693116001)). The cell suspension was lysed by sonication and the clarified supernatant was loaded onto a 1 ml HisTrap affinity column (GE Healthcare) pre-equilibrated with buffer A (20 mM Tris-HCl, pH 7.5, 300 mM NaCl, 1 mM DTT, 20 mM Imidazole, and 1× complete protease inhibitor cocktail without EDTA). The column was washed with buffer B (buffer A containing 45 mM imidazole) and the bound protein of interest was eluted with buffer C (buffer A with 90 mM imidazole). The fractions containing CpPI(4)K were pooled, concentrated using Amicon Ultra-15 and purified by a gel-filtration column (Hi-Load 26/60 Superdex 200, GE Healthcare) equilibrated with 20 mM Tris, pH 7.5, 300 mM NaCl, 1 mM DTT and 1× protease inhibitor cocktail without EDTA. The concentrations of the purified protein (Mw 132.39 kda) was determined by using the protein molar extinction coefficient (ε280 nm=133,810 M^−1 cm^−1). Aliquots were flash frozen in liquid nitrogen and immediately stored at −80° C.
The CpPI(4)K enzymatic assay was performed as described earlier with a some modifications (McNamara et al., 2013). Briefly, L-α-phosphatidylinositol (Avanti Polar Lipid 840046), dissolved in 3% n-octylglucoside (Roche Diagnostics 10634425001), was used as the lipid substrate for the PI(4)K activity assay. CpPI(4)K was assayed using Transcreener ADP2 FP detection kit (BellBrook 3010) in a black, solid 384-well plate (Corning 3575). The final assay volume was 10 μl and contained 3 nM of the respective CpPI(4)K construct in 10 mM Tris, pH 7.5, 1 mM DTT, 3 μM ATP, 5 mM Mn2+, 0.05% Triton X-100 and 10 μM phosphatidylinositol/octylglucoside. The enzyme reaction was performed for 50 minutes at room temperature and was stopped by adding 10 μl of detection mix containing 1× stop buffer (50 mM HEPES, pH7.5, 400 mM NaCl, 20 mM EDTA, and 0.02% Brij-35), 2 nM AMP Alexa Fluor 633 tracer, and 20 μg ml^−1 ADP antibody. Fluorescence polarization measurements were performed on the Infinite M1000 plate reader (Tecan) with λex=635 nm and λem=680 nm (20-nm bandwidth). IC50 values were calculated using Graphpad Prism software.
The inhibitory concentration (IC50) of selected compounds on the C. parvPI(4)K activity is provided in the third column [Cp_PI4K_enz IC50 (μM)] of Table II.

C. parvum PI(4)K, sequence (Q5CVD3 entry or part of it): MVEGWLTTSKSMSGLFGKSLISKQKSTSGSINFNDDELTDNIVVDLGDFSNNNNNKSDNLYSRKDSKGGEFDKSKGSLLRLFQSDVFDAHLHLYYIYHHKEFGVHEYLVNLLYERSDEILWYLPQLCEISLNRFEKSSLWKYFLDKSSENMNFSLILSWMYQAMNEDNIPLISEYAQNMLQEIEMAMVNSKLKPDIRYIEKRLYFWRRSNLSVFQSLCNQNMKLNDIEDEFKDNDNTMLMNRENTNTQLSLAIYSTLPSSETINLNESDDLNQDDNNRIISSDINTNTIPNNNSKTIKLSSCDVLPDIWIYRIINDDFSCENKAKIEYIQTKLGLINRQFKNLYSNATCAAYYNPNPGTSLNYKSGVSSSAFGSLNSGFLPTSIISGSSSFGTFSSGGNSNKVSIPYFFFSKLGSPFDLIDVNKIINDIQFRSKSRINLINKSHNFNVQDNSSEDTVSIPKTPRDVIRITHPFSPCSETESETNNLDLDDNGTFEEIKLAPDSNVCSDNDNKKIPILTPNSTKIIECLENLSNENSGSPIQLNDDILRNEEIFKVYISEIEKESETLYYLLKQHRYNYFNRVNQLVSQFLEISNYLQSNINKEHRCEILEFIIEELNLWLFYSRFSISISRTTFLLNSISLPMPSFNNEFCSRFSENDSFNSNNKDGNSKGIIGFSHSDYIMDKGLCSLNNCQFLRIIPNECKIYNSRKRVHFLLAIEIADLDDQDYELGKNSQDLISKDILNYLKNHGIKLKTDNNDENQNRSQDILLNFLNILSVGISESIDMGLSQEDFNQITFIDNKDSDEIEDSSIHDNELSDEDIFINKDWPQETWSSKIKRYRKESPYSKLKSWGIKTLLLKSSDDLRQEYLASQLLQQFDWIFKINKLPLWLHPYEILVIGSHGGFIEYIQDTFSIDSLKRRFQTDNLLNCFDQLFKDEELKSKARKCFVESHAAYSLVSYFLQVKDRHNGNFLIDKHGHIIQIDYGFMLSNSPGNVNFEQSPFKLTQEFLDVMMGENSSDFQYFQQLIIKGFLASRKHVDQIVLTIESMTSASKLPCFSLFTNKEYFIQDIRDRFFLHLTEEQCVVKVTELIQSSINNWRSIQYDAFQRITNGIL

Structure (SMILES) | IC50 [nM]
CCN(C(=O)c1ccn2ncc(-c3ccc(C(=O)NC)cc3)c2c1)c1ccc(C(F)(F)F)cn1 [Example 96] | 3
CCN(C(=O)c1ccn2ncc(-c3ccc(C(=O)NC)nc3)c2c1)c1ccc(C#N)cn1 [Example 150] | 219
N#Cc1ccc(N(C(=O)c2ccn3ncc(-c4ccc(C(=O)NC5COC5)cc4)c3c2)C2CC2)nc1 [Example 131] | 329
CNC(=O)c1ccc(-c2cnn3ccc(C(=O)N(c4ccc(C(F)(F)F)cn4)C(C)C)cc23)cc1 [Example 153] | 6
CNC(=O)c1ccc(-c2cnn3ccc(C(=O)N(c4ccc(C(F)(F)F)cn4)C4CCC4)cc23)cc1 [Example 160] | 8
CNC(=O)c1ccc(-c2cnn3ccc(N(C)C(=O)c4ccc(C#N)cn4)cc23)cc1 [Example 94] | 117
CCNC(=O)c1ccc(-c2cnn3ccc(C(=O)N(c4ccc(C#N)cn4)C4CC4)cc23)cc1 [Example 127] | 3
CC(C)NC(=O)c1ccc(-c2cnn3ccc(C(=O)N(c4ccc(C#N)cn4)C4CC4)cc23)cc1 [Example 121] | 860
CNC(=O)c1ccc(-c2cnn3ccc(C(=O)N(c4ccc(C#N)cn4)C4CCC4)cc23)cc1 [Example 112] | 72
N#Cc1ccc(N(C(=O)c2ccn3ncc(-c4ccc(C(=O)NC5CC5)cc4)c3c2)C2CC2)nc1 [Example 123] | 38
CCN(C(=O)c1ccn2ncc(-c3ccc(C(=O)NC)cc3)c2c1)c1ccc(C#N)cn1 [Example 90] | 8
N#Cc1ccc(N(C(=O)c2ccn3ncc(-c4ccc(C(N)=O)cc4)c3c2)C2CC2)nc1 [Example 120] | 40
CNC(=O)c1ccc(-c2cnn3ccc(C(=O)N(c4ccc(Cl)cn4)C4CC4)cc23)cc1 [Example 124] | 14
CNC(=O)c1ccc(-c2cnn3ccc(C(=O)N(c4ccc(C#N)cn4)C(C)C)cc23)cc1 [Example 91] | 21
CNC(=O)c1ccc(-c2cnn3ccc(C(=O)N(NC)c4ccc(C#N)cc4)cc23)cn1 [Example 92] | 57
CNC(=O)c1ccc(-c2cnn3ccc(C(=O)N(c4ccc(C#N)c(OC)n4)C4CC4)cc23)cc1 [Example 149] | 4
